Patent publication US11365203B2, “Fluorescent dye and preparation method and use thereof” (Fluorescence Diagnosis (shanghai) Biotech Company Ltd., priority 2016, dated 2022)

Assay: Fluorescence emission spectra of molecular rotors in glycerin and methanol
Assay type: physicochemical
Conditions: for Maximum Emission Wavelength: 1×10^−5 M in glycerin and methanol, excited at maximum excitation wavelength of each dye; for Fluorescence Intensity Ratios in Glycerol/Methanol: 1×10^−5 M, glycerol vs methanol solution
Description: The fluorescent dyes (molecular rotors) prepared in Examples 1-68 were separately dissolved in dimethyl sulfoxide to prepare respectively a mother liquor having a concentration of 1×10^−2 M, and each of the mother liquors was added individually to glycerin and methanol, and mixed uniformly, thereby solutions of a final concentration of 1×10^−5 M were prepared individually. According to the different fluorescent dyes, the fluorescence emission spectra of the fluorescent dyes were detected with the maximum excitation wavelengths of respective fluorescent dyes successively under the same conditions.

Compound | Maximum Emission Wavelength | Fluorescence Intensity Ratios in Glycerol/Methanol
CN(CCO)c1ccc2cc(/C=C(\C#N)c3nc4ccccc4o3)sc2c1 [Molecular Rotor 23] | 608 nm | 568
CN(CCO)c1cc2c(s1)-c1sc(/C=C(\C#N)c3nc4ccccc4s3)cc1[Si]21CCC1 [Molecular Rotor 62] | 715 nm | 759
CC1(C)OC(=O)C(C#N)=C1c1cc2sc(O)cc2s1 [Molecular Rotor 10] | 520 nm | 851
COCCOCCOCCOCCOCCN(C)c1cc2cc3cc(/C=C(\C#N)c4nc5ccccc5o4)sc3cc2s1 [Molecular Rotor 52] | 578 nm | 680
COCCNC(=O)/C(C#N)=C/c1cc2sc(N(C)CCC#N)cc2s1 [Molecular Rotor 7] | 555 nm | 1877
COCCOCCOCCOCCOCCN(C)c1cc2sc(/C=C3\N=C(C)N(C)C3=O)cc2s1 [Molecular Rotor 6] | 585 nm | 1453
COCCNC(=O)/C(C#N)=C/c1cc2sc3cc(N(CCO)CCO)ccc3c2s1 [Molecular Rotor 36] | 628 nm | 901
C[Si]1(C)c2cc(/C=C(\C#N)C(=O)O)sc2-c2sc(N(CCO)CCO)cc21 [Molecular Rotor 58] | 656 nm | 683
CNc1ccc2c(c1)sc1cc(/C=C(\C#N)C(=O)O)sc12 [Molecular Rotor 37] | 627 nm | 879
CN(C)c1cc2c(s1)-c1sc(C=C(C#N)C#N)cc1[Si]2(C)C [Molecular Rotor 56] | 655 nm | 591
CNc1cc2sc(/C=C(\C#N)C(=O)O)cc2s1 [Molecular Rotor 5, 6-(2-cyano-2-formic acid)-2-methylamino-thieno[3,2,b]thiophene] | 555 nm | 1980
6-[2-cyano-2-(2-phenylpropionazole)-vinyl]-2-dimethylamino-thieno[3,2-B:2′,3′-D]thiophene [Molecular Rotor 12] | 655 nm | 655
COc1c(/C=C(\C#N)C(=O)O)sc2c(OC)c(N(C)C)sc12 [Molecular Rotor 33] | 565 nm | 531
COC(=O)/C(C#N)=C/c1cc2ccc(O)cc2s1 [Molecular Rotor 31] | 535 nm | 572
CN(CCC#N)c1cc2cc3cc(/C=C(\C#N)c4nc5ccccc5s4)sc3cc2s1 [Molecular Rotor 53] | 599 nm | 915
N#C/C(=C\c1cc2ccc(N(CCO)CCO)cc2s1)c1nc2ccccc2s1 [Molecular Rotor 24] | 608 nm | 912
CN1C(=O)/C(=C/c2cc3sc4cc(N(CCO)CCO)sc4c3s2)N=C1c1ccccc1 [Molecular Rotor 19] | 650 nm | 791
CC1=N/C(=C/c2cc3cc4cc(N(CCO)CCO)sc4cc3s2)C(=O)N1C [Molecular Rotor 50] | 587 nm | 777
COCCNC(=O)/C(C#N)=C/c1cc2cc3cc(N4CCOCC4)sc3cc2s1 [Molecular Rotor 54] | 563 nm | 722
COCCNC(=O)/C(C#N)=C/c1cc2cc3cc(N4CCOCC4)sc3cc2s1 [Molecular Rotor 55] | 562 nm | 466
COCCOCCOCCOCCOCCOCCOCCOCCOCCOCCOCCOCCOCCOCCOCCNc1cc2sc3cc(/C=C4\N=C(C)N(C)C4=O)sc3c2s1 [Molecular Rotor 18] | 630 nm | 678
CCCCN(CCO)c1ccc2cc(/C=C3N=C(/C=C/c4ccccc4)N(C)C/3=O)sc2c1 [Molecular Rotor 28] | 650 nm | 569

Compound | Maximum Emission Wavelength | Fluorescence Intensity Ratios in Glycerol/Methanol
CN(CCO)c1cc2c(s1)-c1sc(/C=C(\C#N)C(=O)O)cc1C2(C)C [Molecular Rotor 68] | 648 nm | 953
CN(C)c1cc2sc3cc(/C=C(\C#N)C(=O)OC(C)(C)C)sc3c2s1 [Molecular Rotor 11, 6-(2-cyano-2-tert-butyl formatevinyl)-2-dimethylamino-thieno[3,2-B:2′,3′-D]thiophene] | 620 nm | 568
COCCNC(=O)/C(C#N)=C/c1cc2cc3sc(N4CCCC4)cc3cc2s1 [Molecular Rotor 46] | 563 nm | 712
CCOC(=O)/C(C#N)=C/c1cc2sc3cc(N4CCOCC4)sc3c2s1 [Molecular Rotor 21] | 620 nm | 544
CN(CCC#N)c1cc2cc3sc(/C=C(\C#N)C(=O)O)cc3cc2s1 [Molecular Rotor 47] | 561 nm | 912
COCCOCCOCCOCCOCCN(C)c1ccc2cc(/C=C(\C#N)C(=O)O)sc2c1 [Molecular Rotor 29] | 570 nm | 515
COC(=O)/C(C#N)=C/c1cc2sc3cc(N(CC(=O)O)CC(=O)O)sc3c2s1 [Molecular Rotor 17] | 618 nm | 888
CCCCN(CCO)c1ccc2c(c1)sc1cc(/C=C3/N=C(c4ccccc4)N(C)C3=O)sc12 [Molecular Rotor 40] | 659 nm | 652
CN(CCO)c1cc2cc3cc(C=C(C#N)C#N)sc3cc2s1 [Molecular Rotor 48] | 562 nm | 608
CNc1cc2c(s1)-c1sc(/C=C(\C#N)C(=O)OC(C)(C)C)cc1[Si]21CCC1 [Molecular Rotor 60] | 637 nm | 812
CNc1cc2cc3sc(/C=C(\C#N)c4nc5ccccc5s4)cc3cc2s1 [Molecular Rotor 44] | 603 nm | 631
CN1C(=O)/C(=C\c2cc3ccc(N(C)CCOCCC(=O)O)cc3s2)N=C1c1ccccc1 [Molecular Rotor 26] | 610 nm | 712
CN(CCO)c1cc2cc3sc(/C=C(\C#N)c4nc5ccccc5o4)cc3cc2s1 [Molecular Rotor 43] | 582 nm | 816
CN(CCOCCCS(=O)(=O)O)c1cc2sc(C=C(C#N)C#N)cc2s1 [Molecular Rotor 4, 6-(2,2-dicyano-vinyl)-2-[N-methyl-N-(3-sulfonic acid propyloxyethyl)]-thieno[3,2,b]thiophene] | 557 nm | 892
CN1C(=O)/C(=C/c2cc3sc4cc(N(CCCl)CCCl)sc4c3s2)N=C1/C=C/c1ccccc1 [Molecular Rotor 20] | 690 nm | 536
CN(C)c1cc2c(s1)-c1sc(/C=C(\C#N)C(=O)OC(C)(C)C)cc1C2(C)C [Molecular Rotor 65] | 645 nm | 591
CN(C)c1cc2c(s1)-c1sc(/C=C(\C#N)c3nc4ccccc4o3)cc1C2(C)C [Molecular Rotor 66] | 670 nm | 623
COCCNC(=O)/C(C#N)=C/c1cc2sc3cc(N4CCCC4)sc3c2s1 [Molecular Rotor 15] | 620 nm | 799
CN(CCO)c1cc2c(s1)-c1sc(/C=C(\C#N)c3nc4ccccc4s3)cc1C2(C)C [Molecular Rotor 67] | 690 nm | 789
CNc1cc2cc3cc(/C=C4/N=C(c5ccccc5)N(C)C4=O)sc3cc2s1 [Molecular Rotor 51] | 599 nm | 535
CN(CCC#N)c1cc2c(s1)-c1sc(/C=C(\C#N)c3nc4ccccc4o3)cc1[Si]21CCC1 [Molecular Rotor 61] | 691 nm | 816
